Results on 34 compounds are retold here after patent US5093370A, “Quaternary ammonium compounds having muscle relaxation activity” (priority 1989, dated 1992).

In assay [1] the test system is neuromuscular preparations (hemiinterseptum neuromuscule). Nature of the assay: Muscle relaxation action: inhibition of nerve-evoked contraction of mouse neuromuscular preparation. In kind it is cell-based, ddY mice. The conditions noted are these: read-out: Muscle relaxation action IC50 (90% reliance). As to the method: Muscle relaxation action IC50)
(§1) To prepare neuromuscular preparations ddY mice 6 to 10 weeks old weighing 27.0 to 42.0 g were decapitated, venesected, and the hemiinterseptum neuromuscule was removed. This preparation was suspended by applying 1 gram of a strain in Krebs-Henseleit's solution at 36 ±1° C., through which a mixed gas of carbon dioxide/oxygen (5:95) was passed, an electric shock (0.4 to 0.5V, 0.2 Hz, […].) was applied to the nerve by platinum electrodes, and the resulting short contraction reaction was detected by an isometric transducer (Nippon Koden Sha, Japan) and recorded by a biophysiograph system (San-Ei, Japan). An average of 12 contraction height data obtained one minute prior to the administration of a test compound was used as a control. The test compound was accumulatively administered at two minute intervals, and the contraction height two minutes after each administration was compared with the control, to calculate the percentage of inhibition. To ensure the reliability of the tests, usually four measurements were used for each administration. The IC50 value was obtained on a line linearized by the method of least aqueous from a scope from a 10 to 60% inhibition in a log dose-inhibition curve.

The test system is the same in assay [2]. Briefly: Muscle relaxation action under a diabetic condition (neuromuscular preparations from alloxan-treated mice). In kind it is cell-based. The conditions noted are these: Mus musculus; alloxan diabetic ddY mice 8 to 11 weeks old, blood glucose 310 to 460 mg/dl; parentheses: 90% reliance. Here is the method:
as §1, with “administration.” for “administration. The IC50 value was obtained on a line linearized by the method of least aqueous from a scope from a 10 to 60% inhibition in a log dose-inhibition curve.”
Muscle relaxation action under a diabetic condition IC50
Alloxan monohydrate (Nakarai Kagaku, Japan) was administered to the tail vein of ddY mice 4 to 5 weeks old, in a dose of 85 mg/kg, and the blood glucose level was monitored starting at the 28th day, by a glucose analyzer from the administration of alloxan (Bechmann Type II). Mice 8 to 11 weeks old and weighing 19.0 to 36.0 g, and having a blood glucose level of 310 to 460 mg/dl, were chosen and used to prepare neuromuscular preparations as described above.

Setting [3] is: ddY mice 6 to 10 weeks old, Krebs-Henseleit's solution, 36 ±1° C., contraction height two minutes after each cumulative administration, parentheses: 90% reliance.

On to `C[N+](C)(C)CCCCCCCCCC[N+](C)(C)C` [Decamethonium, reference compound], for which the IC50 (in general, the concentration that inhibits the measured activity by half) was found to be 101 µM in assay [1] (setting [3]) and 131 µM in assay [2]. On to `C[N+](C)(C)CCCCc1ccc(CCCC[N+](C)(C)C)cc1` [Example 1, 1,4-Bis(4-trimethylammoniobutyl)benzene diiodide], for which the IC50 in assay [1] amounted to 22.8 µM; in assay [2], 25.9 µM.

On to `C[N+](C)(C)CCCC(=O)c1ccc(C(=O)CCC[N+](C)(C)C)cc1` [Example 2, 1,4-Bis(4-trimethylammoniobutyryl)benzene diiodide], for which the IC50 was found to be 26 µM in assay [1] and 32.7 µM in assay [2]. In the case of `C[N+](C)(C)CCCC(O)c1ccc(C(O)CCC[N+](C)(C)C)cc1` (stereo not shown) [Example 3, 1,4-Bis(1-hydroxy-4-trimethylammoniobutyl)benzene diiodide], the IC50 in assay [1] (setting [3]) amounted to 209 µM. Consider `CC(=O)OC(CCC[N+](C)(C)C)c1ccc(C(CCC[N+](C)(C)C)OC(C)=O)cc1` (stereo not shown) [Example 4, 1,4-Bis(1-acetoxy-4-trimethylammoniobutyl)benzene diiodide], for which the IC50 in assay [1] turned out to be 450 µM.

For `CC[N+](CC)(CC)CCCc1ccc(CCC[N+](CC)(CC)CC)cc1` [Example 6, 1,4-Bis(3-triethylammoniopropyl)benzene diiodide], the IC50 in assay [1] (setting [3]) was 176 µM. On to `C[N+]1(CCCc2ccc(CCC[N+]3(C)CCCCC3)cc2)CCCCC1` [Example 7, 1,4-Bis3-(1-methyl-1-piperidinio)propyl]benzene dibromide], for which the IC50 in assay [1] came to 119 µM. As to `c1cc[n+](CCCc2ccc(CCC[n+]3ccccc3)cc2)cc1` [Example 8, 1,4-Bis[3-(1-pyridinio)propyl]benzene dibromide], the IC50 in assay [1] (setting [3]) is 207 µM. Still for that read-out and setting: next, `CC[N+](CC)(CC)CCCCCc1ccc(CCCCC[N+](CC)(CC)CC)cc1` [Example 10, 1,4-Bis(5-triethylammoniopentyl)benzene diiodide]: 11.2 µM; `C[N+]1(CCCCCc2ccc(CCCCC[N+]3(C)CCCCC3)cc2)CCCCC1` [Example 11]: 60.7 µM.

In the case of `C[N+](C)(C)CCOCc1ccc(COCC[N+](C)(C)C)cc1` [Example 12, 1,4-Bis(2-trimethylammonioethoxymethyl)benzene diiodide], the IC50 in assay [1] worked out at 750 µM. With `C[N+](C)(C)CC(CCCc1ccc(CCCC(C[N+](C)(C)C)C[N+](C)(C)C)cc1)C[N+](C)(C)C` [Example 13], the 50% inhibitory concentration (IC50) in assay [1] (setting [3]) is 1440 µM. With `C[N+](C)(C)CCCCCCCCc1ccccc1` [Example 15, N,N,N-Trimethyl-8-phenyloctylammonium p-tosylate], the IC50 in assay [1] (setting [3]) worked out at 252 µM. With `C[N+](C)(C)CCCCc1cccc(CCCC[N+](C)(C)C)c1` [Example 16, 1,3-Bis(4-trimethylammoniobutyl)benzene diiodide], the IC50 in assay [1] amounted to 531 µM.

Consider `C[N+](C)(C)CCCCc1ccccc1CCCC[N+](C)(C)C` [Example 17, 1,2-Bis(4-trimethylammoniobutyl)benzene diiodide], for which the IC50 in assay [1] turned out to be 59.7 µM. For the compound `CC[N+](CC)(CC)CCCCc1ccc(CCCC[N+](CC)(CC)CC)cc1` [Example 18, 1,4-Bis(triethylammoniobutyl)benzene diiodide], the IC50 was found to be 52.4 µM in assay [1] (setting [3]) and 51.1 µM in assay [2]. Turning to `C[N+]1(CCCCc2ccc(CCCC[N+]3(C)CCCCC3)cc2)CCCCC1` [Example 19, 1,4-Bis[4-(1-methyl-1-piperidinio)butyl]benzene dibromide], the IC50 in assay [1] (setting [3]) was determined as 95.9 µM. As for `C[N+](C)(C)CCCCCCc1ccc(CCCCCC[N+](C)(C)C)cc1` [Example 20, 1,4-Bis(6-trimethylammoniohexyl)benzene diiodide], the IC50 in assay [1] stood at 15.9 µM; in assay [2], 21.7 µM. As to `CC[N+](CC)(CC)CCCCCCc1ccc(CCCCCC[N+](CC)(CC)CC)cc1` [Example 21, 1,4-Bis(6-triethylammoniohexyl)benzene diiodide], the IC50 in assay [1] (setting [3]) was 6.81 µM; in assay [2], 7.66 µM. For `C[N+]1(CCCCCCc2ccc(CCCCCC[N+]3(C)CCCCC3)cc2)CCCCC1` [Example 22, 1,4-Bis[6-(1-methyl-1-piperidinio)hexyl]benzene dibromide], in that order: 17.3 µM and 21.8 µM. `C[N+](C)(C)CCCCc1ccc(CCCC[N+](C)(C)C)c([N+](=O)[O-])c1` [Example 23, 1,4-Bis(4-trimethylammoniobutyl)-2-nitrobenzene diiodide]: the IC50 turned out to be 12.7 µM in assay [1] and 11.9 µM in assay [2]. With `C[N+](C)(C)CCC#Cc1ccc(C#CCC[N+](C)(C)C)cc1` [Example 25, 1,4-Bis(4-trimethylammonio-1-butynyl)benzene diiodide], in assay [1], the IC50 was determined as 110 µM. For the compound `CC[N+](CC)(CC)CCCCCCc1ccc(CCCCCC[N+](CC)(CC)CC)c([N+](=O)[O-])c1` [Example 26, 1,4-Bis(6-triethylammoniohexyl)-2-nitrobenzene diiodide], the IC50 in assay [1] (setting [3]) is 4.52 µM. Take `CC[N+](CC)(CC)CCCCCCCc1ccc(CCCCCCC[N+](CC)(CC)CC)cc1` [Example 27, 1,4-Bis(7-triethylammonioheptyl)benzene diiodide]: the IC50 in assay [1] (setting [3]) was 5.96 µM. With `C[N+](C)(C)CCCSc1ccc(SCCC[N+](C)(C)C)cc1` [Example 28, 1,4-Bis(3-trimethylammoniopropylthio)benzene diiodide], the IC50 in assay [1] (setting [3]) was found to be 3.89 µM. Take `C[N+](C)(C)CCC[S+]([O-])c1ccc([S+]([O-])CCC[N+](C)(C)C)cc1` (stereo not shown) [Example 29, 1,4-Bis(3-trimethylammoniopropylsulfinyl)benzene diiodide]: the IC50 in assay [1] (setting [3]) was found to be 5.46 µM. Regarding `C[N+](C)(C)CCCS(=O)(=O)c1ccc(S(=O)(=O)CCC[N+](C)(C)C)cc1` [Example 30, 1,4-Bis(3-trimethylammoniopropylsulfonyl)benzene diiodide], the IC50 in assay [1] (setting [3]) came to 9.44 µM. With `C[N+](C)(C)CCCc1ccc2cc(CCC[N+](C)(C)C)ccc2c1` [Example 31, 2,6-Bis(3-trimethylammoniopropyl)naphthalene diiodide], the IC50 in assay [1] (setting [3]) came to 186 µM. In the case of `CC[N+](CC)(CC)CCCc1ccc2cc(CCC[N+](CC)(CC)CC)ccc2c1` [Example 32, 2,6-Bis(3-triethylammoniopropyl)naphthalene diiodide], the IC50 in assay [1] (setting [3]) was found to be 79.1 µM.

As to `CC[N+](CC)(CC)CCCCCSc1ccc(SCCCCC[N+](CC)(CC)CC)cc1` [Example 33, 1,4-Bis(5-triethylammoniopentylthio)benzene diiodide], in assay [1] (setting [3]), the half-maximal inhibitory concentration (IC50) was 1.5 µM. With `C[N+](C)(C)CCCc1ccc(-c2ccc(CCC[N+](C)(C)C)cc2)cc1` [Example 34, 4,4'-Bis(3-trimethylammoniopropyl)biphenyl diiodide], in assay [1], the IC50 stood at 132 µM. Consider `CC[N+](CC)(CC)CCCc1ccc(-c2ccc(CCC[N+](CC)(CC)CC)cc2)cc1` [Example 35, 4,4'-Bis(3-triethylammoniopropyl)biphenyl diiodide], for which the concentration for half-maximal inhibition (IC50) in assay [1] (setting [3]) is 24.9 µM.

Take `CC[N+](CC)(CC)CCCCCCCCc1ccc(CCCCCCCC[N+](CC)(CC)CC)cc1` [Example 36, 1,4-Bis(8-triethylammoniooctyl)benzene diiodide]: the IC50 in assay [1] (setting [3]) amounted to 114 µM. Turning to `C[N+](C)(C)CCOC(=O)CCC(=O)OCC[N+](C)(C)C` [Succinylcholine, reference compound], the IC50 in assay [1] (setting [3]) amounted to 25.2 µM; in assay [2] it was 19.3 µM.
